This is an account of results in patent publication US9393186B2, “Synthetic peptides useful in the treatment of the skin and use thereof in cosmetic or dermopharmaceutical compositions” (Lipotec, S.A., priority 2006, dated 2016).

Square brackets hold non-standard residues; d marks the D form. Ends that are not written are not given here. Cit = NC(=O)NCCC[C@H](N)C(=O)O; Orn = NCCC[C@H](N)C(=O)O; Nva = CCC[C@H](N)C(=O)O

Assay [1] concerns EFT-200 three-dimensional human skin model. Description: Collagen fibril diameter in EFT-200 three-dimensional human skin model (transmission electron microscopy). The following applies: for average of the diameters of the collagen fibrils observed: peptide 0.1 mg/mL in culture medium, changed daily for 14 days, untreated tissue 6.825 nm; for reduction of the diameter of the collagen fibers: peptide 0.1 mg/mL, 14 days, versus untreated tissue. It counts as cell-based. The method, then:
Starting from an EFT-200 three-dimensional human skin model (MatTek Corporation), the tissues were treated with H-Lys-Asp-Ile-Cit-NH2 and with H-Lys-Asp-Val-Cit-NH2 at a concentration of 0.1 mg/mL in culture medium. The latter was changed daily for 14 days, adding peptide at the same concentration in each change. On day 14, the tissues were fixed with a solution of 2% paraformaldehyde and 2.5% glutaraldehyde in 0.1M phosphate buffer, pH 7.4, for at least 2 hours at 4° C. The post-fixing was then carried out with 1% osmium tetroxide containing 0.8% potassium ferricyanide for 1 hour at 4° C. The tissues were then dehydrated in alcohols and were slowly included in epoxy resin (Spurr). The samples were cut and oriented correctly in the block, allowing them to polymerize for 48 hours at 60° C.

Assay [2] has as its system fibrillogenesis. Description: Regulation of fibrillogenesis by synthetic peptides. The following applies: peptides complying with the [+,-,0,+] charge pattern; no method given.

For H-KDI[Cit]-NH2, in assay [1], the “average of the diameters of the collagen fibrils observed” value was found to be 5.791 nm and the “reduction of the diameter of the collagen fibers” value is 15.1%.

Take H-KDV[Cit]-NH2: in assay [1], the “average of the diameters of the collagen fibrils observed” value came out at 5.774 nm and the “reduction of the diameter of the collagen fibers” value was determined as 15.5%.

“His-Asp-Ala-Arg (HDAR; printed: His-Asp-Ala-Arg) [comparison peptide complying with the [+,-,0,+] charge pattern]”: the effect on fibrillogenesis entry in assay [2] is listed as “no effect on fibrillogenesis”.

As to “His-Asp-Ile-His (HDIH; printed: His-Asp-Ile-His) [comparison peptide complying with the [+,-,0,+] charge pattern]”, the effect on fibrillogenesis result in assay [2] is “no effect on fibrillogenesis”.

Regarding RELH, the effect on fibrillogenesis result in assay [2] is on record as “capable of regulating fibrillogenesis”.

Regarding [Orn]D[Nva]H, the effect on fibrillogenesis entry in assay [2] is “no effect on fibrillogenesis”.
